Patent US20260092071A1, “COMPOUNDS AND COMPOSITIONS AS SMARCA2/4 DEGRADERS AND USES THEREOF” (REGENTS OF THE UNIVERSITY OF MICHIGAN, priority 2022, published 2026)

How the values were obtained:
SMARCA4 = SMARCA4 (Homo sapiens, UniProt P51532); test: HiBit assay in engineered HT1080 CRISPR knock-in cell, 6 hrs (B series), SMARCA4; type: cell-based; conditions: 6 hrs incubation; for DC50: read-out: SMARC A4 HT1080 HiBit DC50; for Dmax: HT-1080, HT1080 CRISPR knock-in cells, read-out: SMARC A4 HT1080 HiBit Dmax(%)
Chain of SMARCA4 (P51532 whole entry): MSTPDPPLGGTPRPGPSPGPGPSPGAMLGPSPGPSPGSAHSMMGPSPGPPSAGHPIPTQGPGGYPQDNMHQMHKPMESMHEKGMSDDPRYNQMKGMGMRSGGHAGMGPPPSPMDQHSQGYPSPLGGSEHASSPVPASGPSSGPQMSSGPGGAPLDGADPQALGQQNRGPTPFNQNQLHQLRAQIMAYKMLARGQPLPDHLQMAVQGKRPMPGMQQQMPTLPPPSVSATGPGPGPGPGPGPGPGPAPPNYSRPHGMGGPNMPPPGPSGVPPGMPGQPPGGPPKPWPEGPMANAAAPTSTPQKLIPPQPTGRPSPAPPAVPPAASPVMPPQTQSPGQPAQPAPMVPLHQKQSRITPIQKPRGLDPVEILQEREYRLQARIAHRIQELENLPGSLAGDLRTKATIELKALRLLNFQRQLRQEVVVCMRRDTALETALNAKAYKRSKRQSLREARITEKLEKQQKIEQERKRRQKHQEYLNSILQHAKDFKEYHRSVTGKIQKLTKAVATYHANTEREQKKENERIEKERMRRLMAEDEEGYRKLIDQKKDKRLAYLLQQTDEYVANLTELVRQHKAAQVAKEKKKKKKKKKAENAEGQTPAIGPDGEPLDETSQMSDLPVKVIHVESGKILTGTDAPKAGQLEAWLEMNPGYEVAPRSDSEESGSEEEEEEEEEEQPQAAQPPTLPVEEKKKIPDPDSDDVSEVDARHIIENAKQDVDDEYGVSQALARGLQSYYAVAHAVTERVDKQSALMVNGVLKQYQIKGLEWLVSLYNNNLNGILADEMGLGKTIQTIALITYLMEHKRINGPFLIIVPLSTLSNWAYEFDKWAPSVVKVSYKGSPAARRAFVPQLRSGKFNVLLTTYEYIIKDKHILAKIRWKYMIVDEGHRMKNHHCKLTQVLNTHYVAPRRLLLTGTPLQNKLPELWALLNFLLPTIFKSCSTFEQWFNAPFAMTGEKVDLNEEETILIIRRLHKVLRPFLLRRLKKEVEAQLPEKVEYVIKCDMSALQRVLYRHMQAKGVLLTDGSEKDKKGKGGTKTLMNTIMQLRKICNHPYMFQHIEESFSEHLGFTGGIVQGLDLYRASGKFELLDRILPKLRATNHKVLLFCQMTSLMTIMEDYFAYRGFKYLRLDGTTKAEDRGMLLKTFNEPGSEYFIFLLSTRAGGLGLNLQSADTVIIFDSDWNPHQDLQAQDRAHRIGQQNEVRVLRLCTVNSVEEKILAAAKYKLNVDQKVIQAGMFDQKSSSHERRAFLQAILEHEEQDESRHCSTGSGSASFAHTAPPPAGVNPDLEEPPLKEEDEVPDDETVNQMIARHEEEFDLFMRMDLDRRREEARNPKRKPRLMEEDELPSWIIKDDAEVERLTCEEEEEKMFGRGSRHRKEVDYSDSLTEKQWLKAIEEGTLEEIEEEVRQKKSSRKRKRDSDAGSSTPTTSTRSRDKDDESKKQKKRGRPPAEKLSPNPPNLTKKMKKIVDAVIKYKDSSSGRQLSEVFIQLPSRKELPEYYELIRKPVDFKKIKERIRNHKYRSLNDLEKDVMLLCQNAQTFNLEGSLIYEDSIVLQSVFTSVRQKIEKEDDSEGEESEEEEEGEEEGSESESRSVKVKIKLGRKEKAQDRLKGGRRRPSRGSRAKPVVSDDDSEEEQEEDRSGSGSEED
In short: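 Engineered HT1080 knock-in cells, 2000 cells/well, 6 hrs compound exposure, 37° C/5% CO2, 0.1% DMSO final. Lytic detection: LgBiT 1:100 plus HiBiT substrate 1:50 in lytic buffer, 10 min shake at RT, luminescence read.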

SMARCA2 = SMARCA2 (Homo sapiens, UniProt P51531); test: HiBit assay in engineered HT1080 CRISPR knock-in cell, 6 hrs (B series), SMARCA2; type: cell-based; conditions: 6 hrs incubation; for DC50 / SMARC A2 HT1080 HiBit Dmax (%): HT1080 CRISPR knock-in cells; for DC50: read-out: SMARC A2 HT1080 HiBit DC50; for Dmax: HT-1080, HT1080 CRISPR knock-in cells, read-out: SMARC A2 HT1080 HiBit Dmax (%)
Chain of SMARCA2 (P51531 whole entry): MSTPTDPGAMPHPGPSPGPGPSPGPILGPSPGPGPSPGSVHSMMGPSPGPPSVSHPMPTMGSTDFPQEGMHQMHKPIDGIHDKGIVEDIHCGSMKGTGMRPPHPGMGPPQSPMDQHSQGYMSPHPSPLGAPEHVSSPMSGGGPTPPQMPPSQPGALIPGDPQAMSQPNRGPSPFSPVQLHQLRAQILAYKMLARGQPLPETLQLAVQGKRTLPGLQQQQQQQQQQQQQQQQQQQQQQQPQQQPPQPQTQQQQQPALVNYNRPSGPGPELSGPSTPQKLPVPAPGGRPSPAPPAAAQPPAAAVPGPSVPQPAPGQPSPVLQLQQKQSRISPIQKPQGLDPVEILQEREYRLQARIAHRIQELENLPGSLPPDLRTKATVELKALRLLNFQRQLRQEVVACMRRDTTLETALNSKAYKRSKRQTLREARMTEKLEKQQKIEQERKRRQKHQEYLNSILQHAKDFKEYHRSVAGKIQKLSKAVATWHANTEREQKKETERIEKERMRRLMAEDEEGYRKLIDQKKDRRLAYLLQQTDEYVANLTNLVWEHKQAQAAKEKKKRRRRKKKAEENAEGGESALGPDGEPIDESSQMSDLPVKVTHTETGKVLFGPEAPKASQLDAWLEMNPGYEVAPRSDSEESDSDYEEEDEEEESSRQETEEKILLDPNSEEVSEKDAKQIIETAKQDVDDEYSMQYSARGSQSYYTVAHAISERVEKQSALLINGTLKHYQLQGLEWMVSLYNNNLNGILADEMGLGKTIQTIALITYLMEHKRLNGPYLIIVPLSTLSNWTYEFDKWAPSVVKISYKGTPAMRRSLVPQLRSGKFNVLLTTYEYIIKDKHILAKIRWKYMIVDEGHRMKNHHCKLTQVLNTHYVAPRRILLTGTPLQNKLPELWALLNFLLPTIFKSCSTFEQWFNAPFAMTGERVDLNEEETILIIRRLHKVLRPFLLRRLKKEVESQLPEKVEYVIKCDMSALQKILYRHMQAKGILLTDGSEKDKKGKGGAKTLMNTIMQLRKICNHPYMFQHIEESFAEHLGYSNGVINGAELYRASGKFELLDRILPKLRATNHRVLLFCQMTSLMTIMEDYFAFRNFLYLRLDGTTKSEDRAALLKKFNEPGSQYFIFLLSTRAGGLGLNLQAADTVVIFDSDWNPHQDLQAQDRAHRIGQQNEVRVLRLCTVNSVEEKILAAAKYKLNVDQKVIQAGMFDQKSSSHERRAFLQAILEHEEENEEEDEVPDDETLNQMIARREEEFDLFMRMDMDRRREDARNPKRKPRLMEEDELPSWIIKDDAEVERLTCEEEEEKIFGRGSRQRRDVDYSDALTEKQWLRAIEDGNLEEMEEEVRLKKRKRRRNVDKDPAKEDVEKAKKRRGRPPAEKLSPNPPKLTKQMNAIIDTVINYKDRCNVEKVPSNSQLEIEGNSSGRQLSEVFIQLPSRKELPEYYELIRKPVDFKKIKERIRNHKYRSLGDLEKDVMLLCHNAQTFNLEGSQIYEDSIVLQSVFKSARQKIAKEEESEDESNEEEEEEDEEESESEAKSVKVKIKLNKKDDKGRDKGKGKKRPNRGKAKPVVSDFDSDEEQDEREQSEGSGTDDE
In short: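 HT1080 CRISPR knock-in cells carrying the HiBiT tag were seeded onto compounds (final DMSO 0.1%) and incubated 6 hrs at 37° C, 5% CO2. Remaining tagged protein was detected by lytic HiBiT luminescence after adding LgBiT protein and substrate, with LgBiT-free wells serving as negative control.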

SMILES | DC50 (SMARCA4; HT1080 CRISPR knock-in cells) [nM] | Dmax (SMARCA4) [%] | DC50 (SMARCA2) [nM] | Dmax (SMARCA2) [%] | SMARC A4 HT1080 HiBit Dmax(%) (SMARCA4; HT1080 CRISPR knock-in cells) | SMARC A2 HT1080 HiBit Dmax (%) (SMARCA2)
Cc1ncsc1-c1ccc([C@H](C)NC(=O)[C@@H]2C[C@@H](O)CN2C(=O)C(c2cc(OCCCCn3cc(-c4ccc5c(c4)C(C)(C)c4nc(=O)c6c(Cl)cccc6n4-5)cn3)no2)C(C)C)cc1 (stereo partly drawn) [Compound B99, (2S,4R)-1-(2-(3-(4-(4-(4-chloro-7,7-dimethyl-5-oxo-5,7-dihydroindolo[1,2-a]quinazolin-9-yl)-1H-pyrazol-1-yl)butoxy)isoxazol-5-yl)-3-methylbutanoyl)-4-hydroxy-N-((S)-1-(4-(4-methylthiazol-5-yl)phenyl)ethyl)pyrrolidine-2-carboxamide] | > 1000 | < 50 | < 100 | 50 to 69 |  | 
Cc1ncsc1-c1ccc([C@H](C)NC(=O)[C@@H]2C[C@@H](O)CN2C(=O)[C@H](C(C)C)n2cc([C@H]3CC[C@H](CN4CCN(c5ccc6c(c5)-n5c(nc(=O)c7c(Cl)cccc75)C6(C)C)CC4)CC3)nn2)cc1 [Compound B120, (2S,4R)-1-((S)-2-(4-((1r,4S)-4-((4-(4-chloro-7,7-dimethyl-5-oxo-5,7-dihydroindolo[1,2-a]quinazolin-10-yl)piperazin-1-yl)methyl)cyclohexyl)-1H-1,2,3-triazol-1-yl)-3-methylbutanoyl)-4-hydroxy-N-((S)-1-(4-(4-methylthiazol-5-yl)phenyl)ethyl)pyrrolidine-2-carboxamide] | < 100 | 70 to 90 | < 100 | > 90 |  | 
Cc1ncsc1-c1ccc([C@H](C)NC(=O)[C@@H]2C[C@@H](O)CN2C(=O)[C@@H](NC(=O)C2CCC(N3CCC(c4ccc5c(c4)-n4c(nc(=O)c6c(Cl)cccc64)C5(C)C)CC3)CC2)C(C)(C)C)cc1 (stereo partly drawn) [Compound B47, (2S,4R)-1-((S)-2-(4-(4-(4-chloro-7,7-dimethyl-5-oxo-5,7-dihydroindolo[1,2-a]quinazolin-10-yl)piperidin-1-yl)cyclohexane-1-carboxamido)-3,3-dimethylbutanoyl)-4-hydroxy-N-((S)-1-(4-(4-methylthiazol-5-yl)phenyl)ethyl)pyrrolidine-2-carboxamide] | 100 to 500 | < 50 | 100 to 500 | 70 to 90 |  | 
Cc1ncsc1-c1ccc([C@H](C)NC(=O)[C@@H]2C[C@@H](O)CN2C(=O)[C@H](C(C)C)n2cc(CCCCCN3CCC(c4ccc5c(c4)-n4c(nc(=O)c6c(Cl)cccc64)C5(C)C)CC3)nn2)cc1 [Compound B61, (2S,4R)-1-((S)-2-(4-(5-(4-(4-chloro-7,7-dimethyl-5-oxo-5,7-dihydroindolo[1,2-a]quinazolin-10-yl)piperidin-1-yl)pentyl)-1H-1,2,3-triazol-1-yl)-3-methylbutanoyl)-4-hydroxy-N-((S)-1-(4-(4-methylthiazol-5-yl)phenyl)ethyl)pyrrolidine-2-carboxamide] | < 100 | 70 to 90 | < 100 | > 90 |  | 
Cc1ncsc1-c1ccc([C@H](C)NC(=O)[C@@H]2C[C@@H](O)CN2C(=O)[C@H](C(C)C)n2cc(CCCCN3CCC(c4ccc5c(c4)-n4c(nc(=O)c6c(Cl)cccc64)C5(C)C)CC3)nn2)cc1 [Compound B73, (2S,4R)-1-((S)-2-(4-(4-(4-(4-chloro-7,7-dimethyl-5-oxo-5,7-dihydroindolo[1,2-a]quinazolin-10-yl)piperidin-1-yl)butyl)-1H-1,2,3-triazol-1-yl)-3-methylbutanoyl)-4-hydroxy-N-((S)-1-(4-(4-methylthiazol-5-yl)phenyl)ethyl)pyrrolidine-2-carboxamide] | 100 to 500 | 70 to 90 | < 100 | > 90 |  | 
Cc1ncsc1-c1ccc([C@H](C)NC(=O)[C@@H]2C[C@@H](O)CN2C(=O)[C@@H](NC(=O)CCCN2CCC(c3ccc4c(c3)-n3c(nc(=O)c5c(Cl)cccc53)C4(C)C)CC2)C(C)(C)C)cc1 [Compound B45, (2S,4R)-1-((S)-2-(4-(4-(4-chloro-7,7-dimethyl-5-oxo-5,7-dihydroindolo[1,2-a]quinazolin-10-yl)piperidin-1-yl)butanamido)-3,3-dimethylbutanoyl)-4-hydroxy-N-((S)-1-(4-(4-methylthiazol-5-yl)phenyl)ethyl)pyrrolidine-2-carboxamide] | > 1000 | < 50 | 100 to 500 | 70 to 90 |  | 
Cc1ncsc1-c1ccc([C@H](C)NC(=O)[C@@H]2C[C@@H](O)CN2C(=O)[C@H](C(C)C)n2cc(C3CCN(CCN4CCC(c5ccc6c(c5)-n5c(nc(=O)c7c(Cl)cccc75)C6(C)C)CC4)CC3)nn2)cc1 [Compound B67, (2S,4R)-1-((S)-2-(4-(1-(2-(4-(4-chloro-7,7-dimethyl-5-oxo-5,7-dihydroindolo[1,2-a]quinazolin-10-yl)piperidin-1-yl)ethyl)piperidin-4-yl)-1H-1,2,3-triazol-1-yl)-3-methylbutanoyl)-4-hydroxy-N-((S)-1-(4-(4-methylthiazol-5-yl)phenyl)ethyl)pyrrolidine-2-carboxamide] | < 100 | 70 to 90 | < 100 | > 90 |  | 
Cc1ncsc1-c1ccc([C@H](C)NC(=O)[C@@H]2C[C@@H](O)CN2C(=O)[C@@H](NC(=O)[C@H]2CC[C@H](CN3CCC(c4ccc5c(c4)C(C)(C)c4nc(=O)c6c(Cl)cccc6n4-5)CC3)CC2)C(C)(C)C)cc1 [Compound B1, (2S,4R)-1-((S)-2-((1r,4S)-4-((4-(4-chloro-7,7-dimethyl-5-oxo-5,7-dihydroindolo[1,2-a]quinazolin-9-yl)piperidin-1-yl)methyl)cyclohexane-1-carboxamido)-3,3-dimethylbutanoyl)-4-hydroxy-N—((S)-1-(4-(4-methylthiazol-5-yl)phenyl)ethyl)pyrrolidine-2-carboxamide] | < 100 | 50 to 69 | < 100 | > 90 |  | 
Cc1ncsc1-c1ccc([C@H](C)NC(=O)[C@@H]2C[C@@H](O)CN2C(=O)[C@H](C(C)C)n2cc(C3CCC(c4cccc5c4C(C)(C)c4nc(=O)c6c(Cl)cccc6n4-5)CC3)nn2)cc1 (stereo partly drawn) [Compound B137, (2S,4R)-1-((S)-2-(4-(4-(4-chloro-7,7-dimethyl-5-oxo-5,7-dihydroindolo[1,2-a]quinazolin-8-yl)cyclohexyl)-1H-1,2,3-triazol-1-yl)-3-methylbutanoyl)-4-hydroxy-N-((S)-1-(4-(4-methylthiazol-5-yl)phenyl)ethyl)pyrrolidine-2-carboxamide] | < 100 | < 50 | < 100 | > 90 |  | 
Cc1nc(C)c(-c2ccc([C@H](C)NC(=O)[C@@H]3C[C@@H](O)CN3C(=O)[C@@H](n3cc([C@H]4CC[C@H](CN5CCN(c6ccc7c(c6)-n6c(nc(=O)c8c(Cl)cccc86)C76CCCCC6)CC5)CC4)nn3)C(C)(C)C)cc2)s1 [Compound B168, (2S,4R)-1-((S)-2-(4-((1,4S)-4-((4-(4′-chloro-5′-oxo-5′H-spiro[cyclohexane-1,7′-indolo[1,2-a]quinazolin]-10′-yl)piperazin-1-yl)methyl)cyclohexyl)-1H-1,2,3-triazol-1-yl)-3,3-dimethylbutanoyl)-N-((S)-1-(4-(2,4-dimethylthiazol-5-yl)phenyl)ethyl)-4-hydroxypyrrolidine-2-carboxamide] | 100 to 500 | 70 to 90 | < 100 | > 90 |  | 
Cc1ncsc1-c1ccc([C@H](C)NC(=O)[C@@H]2C[C@@H](O)CN2C(=O)[C@@H](NC(=O)C2CC(N3CCC(c4ccc5c(c4)C(C)(C)c4nc(=O)c6c(Cl)cccc6n4-5)CC3)C2)C(C)(C)C)cc1 (stereo partly drawn) [Compound B14, (2S,4R)-1-((2S)-2-(3-(4-(4-chloro-7,7-dimethyl-5-oxo-5,7-dihydroindolo[1,2-a]quinazolin-9-yl)piperidin-1-yl)cyclobutane-1-carboxamido)-3,3-dimethylbutanoyl)-4-hydroxy-N-((S)-1-(4-(4-methylthiazol-5-yl)phenyl)ethyl)pyrrolidine-2-carboxamide] | 100 to 500 |  | < 100 |  | B (B (70-90% degradation)) | A (A (>90% degradation))
Cc1ncsc1-c1ccc2c(c1)CC[C@@H]2NC(=O)[C@@H]1C[C@@H](O)CN1C(=O)[C@@H](n1cc([C@H]2CC[C@H](CN3CCC(c4ccc5c(c4)-n4c(nc(=O)c6c(Cl)cccc64)C5(C)C)CC3)CC2)nn1)C(C)(C)C [Compound B123, (2S,4R)-1-((S)-2-(4-((1r,4S)-4-((4-(4-chloro-7,7-dimethyl-5-oxo-5,7-dihydroindolo[1,2-a]quinazolin-10-yl)piperidin-1-yl)methyl)cyclohexyl)-1H-1,2,3-triazol-1-yl)-3,3-dimethylbutanoyl)-4-hydroxy-N-((S)-5-(4-methylthiazol-5-yl)-2,3-dihydro-1H-inden-1-yl)pyrrolidine-2-carboxamide] | 100 to 500 | < 50 | < 100 | 70 to 90 |  | 
Cc1cc(C(C(=O)N2C[C@H](O)C[C@H]2C(=O)N[C@@H](CCN2CCC(c3cccc4c3C(C)(C)c3nc(=O)c5c(Cl)cccc5n3-4)CC2)c2ccc(-c3scnc3C)cc2)C(C)C)on1 (stereo partly drawn) [Compound B152, (2S,4R)—N—((S)-3-(4-(4-chloro-7,7-dimethyl-5-oxo-5,7-dihydroindolo[1,2-a]quinazolin-8-yl)piperidin-1-yl)-1-(4-(4-methylthiazol-5-yl)phenyl)propyl)-4-hydroxy-1-(3-methyl-2-(3-methylisoxazol-5-yl)butanoyl)pyrrolidine-2-carboxamide] | < 100 | 70 to 90 | < 100 |  |  | A (A (>90% degradation))
